Test results taken from patent publication US10435396B2, “2-substituted indazoles, methods for producing same, pharmaceutical preparations that contain same, and use of same to produce drugs” (Bayer Pharma Aktiengesellschaft, priority 2016, dated 2019).

Columns and labels:
human IRAK4 = human IRAK4 (Homo sapiens (Human), UniProt Q9NWZ3); assay: IRAK4 kinase assay (IRAK4 TR-FRET assay); assay type: biochemical; settings: 1 mM ATP
Description: The IRAK4-inhibitory activity of the substances according to the invention was measured in the IRAK4 TR-FRET assay (TR-FRET=Time Resolved Fluorescence Resonance Energy Transfer) described hereinafter.
Recombinant fusion protein from N-terminal GST (glutathione S-transferase) and human IRAK4, expressed in baculovirus-infected insect cells (Hi5, BTI-TN-5B1-4, cell line purchased from Invitrogen, catalogue No. B855-02) and purified via affinity chromatography, was used as enzyme. The substrate used for the kinase reaction was the biotinylated peptide biotin-Ahx-[…] (C-terminus in amide form) which can be purchased, for example, from Biosyntan GmbH (Berlin-Buch).
For the assay, 11 different concentrations in the range from 20 μM to 0.073 nM were prepared from a 2 mM solution of the test substance in DMSO. 50 nl of the respective solution were pipetted into a black low-volume 384-well microtitre plate (Greiner Bio-One, Frickenhausen, Germany), 2 μl of a solution of IRAK4 in assay buffer [50 mM HEPES pH 7.5, 5 mM MgCl2, 1.0 mM dithiothreitol, 30 μM activated sodium orthovanadate, 0.1% (w/v) of bovine gamma-globulin (BGG) 0.04% (v/v) nonidet-P40 (Sigma)] were added and the mixture was incubated for 15 min to allow prebinding of the substances to the enzyme prior to the kinase reaction. The kinase reaction was then started by addition of 3 μl of a solution of adenosine triphosphate (ATP, 1.67 mM=final concentration in 5 μl of assay volume: 1 mM) and peptide substrate (0.83 μM=final concentration in 5 μl assay volume: 0.5 μM) in assay buffer, and the resulting mixture was incubated at 22° C. for the reaction time of 45 min. The concentration of the IRAK4 was adjusted to the respective activity of the enzyme and set such that the assay was carried out in the linear range. Typical concentrations were in the order of about 0.2 nM. The reaction was stopped by addition of 5 μl of a solution of TR-FRET detection reagents [0.1 μM streptavidin-XL665 (Cisbio Bioassays; France, catalogue No. 610SAXLG)] and 1.5 nM anti-phosphoserine antibody [Merck Millipore, “STK Antibody”, catalogue No. 35-002] and 0.6 nM LANCE EU-W1024-labelled anti-mouse-IgG antibody (Perkin-Elmer, product No. AD0077; alternatively, it is possible to use a terbium cryptate-labelled anti-mouse-IgG antibody from Cisbio Bioassays) in aqueous EDTA solution (100 mM EDTA, 0.4% [w/v] bovine serum albumin [BSA] in 25 mM HEPES pH 7.5).
The resulting mixture was incubated at 22° C. for 1 h to allow formation of a complex of the biotinylated phosphorylated substrate and the detection reagents. The amount of the phosphorylated substrate was then evaluated by measuring the resonance energy transfer from europium chelate-labelled anti-mouse-IgG antibody to streptavidin-XL665. To this end, the fluorescence emissions at 620 nm and 665 nm were measured after excitation at 350 nm in a TR-FRET measuring instrument, for example a Rubystar (BMG Labtechnologies, Offenburg, Germany) or a Viewlux (Perkin-Elmer). The ratio of the emissions at 665 nm and 622 nm was taken as a measure of the amount of phosphorylated substrate. The data were normalized (enzyme reaction without test substance=0% inhibition; all other assay components but no enzyme=100% inhibition). Typically, the test substances were tested on the same microtitre plates at 11 different concentrations in the range from 20 μM to 0.073 nM (20 μM, 5.7 μM, 1.6 μM, 0.47 μM, 0.13 μM, 38 nM, 11 nM, 3.1 nM, 0.89 nM, 0.25 nM and 0.073 nM). The dilution series were prepared prior to the assay (2 mM to 7.3 nM in 100% DMSO) by serial dilutions. The IC50 values were calculated using a 4-parameter fit.

[1] = system: secretion of TNF-α in THP-1 cells; assay: TNF-α secretion in THP-1 cells (LPS-triggered); assay type: cell-based, human; settings: Homo sapiens, THP-1, 17 h, LPS 0.05 μg/ml, read-out: IC50 with respect to the secretion of TNF-α in THP-1 cells
Description: TNF-α Secretion in THP-1 Cells
With the aid of this test, it is possible to test substances for their ability to inhibit secretion of TNF-α (tumour necrosis factor alpha) in THP-1 cells (human monocytic acute leukaemia cell line). TNF-α is a cytokine involved in inflammatory processes. In this test, TNF-α secretion is triggered by incubation with bacterial lipopolysaccharide (LPS).
THP-1 cells are kept in continuous suspension cell culture [RPMI 1460 medium with L-Glutamax (Gibco, Cat No. 61870-044) supplemented with foetal calf serum (FCS) 10% (Invitrogen, Cat No. 10082-147), 1% penicillin/streptomycin (Gibco BRL, Cat No. 15140-114)] and should not exceed a cell concentration of 1×10^6 cells/ml. The assay is carried out in cell culture medium (RPMI 1460 medium with L-Glutamax supplemented with FCS 10%).
In each case 2-2.5 μl of the cell suspension (corresponds to 4000 cells) per well were dispensed into a 384-well test plate (Greiner, Cat No. 784076), in each of which 40-50 nl substance had been dissolved in 100% DMSO. This was done using […] in the range from 20 μM to 0.073 nM for each substance. The cells were incubated at room temperature for 15 min. 2-2.5 μl of 0.1 μg/ml LPS (Sigma, Escherichia coli 055:B5, Cat. No. L5418) dissolved in cell culture medium (final concentration 0.05 μg/ml) were then dispensed into each well. As neutral control, cells were treated with 0.05 μg/ml LPS and 1% DMSO and, as inhibitor control, with 1% DMSO only.
The plates were centrifuged at 80 g for 30 s and incubated at 37° C., 5% CO2 and 95% atmospheric humidity for 17 h. The amount of TNF-α was determined using the TNF-alpha HTRF Detection Kit (Cisbio, Cat No. 62TNFPEB/C). To this end, 2 μl of the detection solution in each case, consisting of anti-TNF-α-XL665 conjugate and anti-TNF-α-cryptate conjugate dissolved in the reconstitution buffer in accordance with the manufacturer's instructions, were added for the HTRF (Homogeneous Time-Resolved Fluorescence) test. After the addition, the mixture was incubated either at room temperature for 3 h or at 4° C. overnight. The signals were then read at 620/665 nm using an HTRF-enabled measuring instrument such as the BMG PheraStar.
The activity of the substances is expressed as the ratio between neutral and inhibitor control in percent. The IC50 values were calculated using a 4-parameter fit.

human PBMCs = assay: In vitro LPS-induced cytokine production in human PBMCs; assay type: cell-based; settings: 0.1 μg/ml LPS, 24 hours
Description: In Vitro LPS (Lipopolysaccharide)-Induced Cytokine Production in Human PBMCs (Peripheral Blood Mononuclear Cells)
The effect of the inventive compounds of the general formula (I) on induced cytokine production in human PBMCs was examined. Cytokine production was induced here by LPS, a TLR4 ligand, which leads to activation of the IRAK4-mediated signal path.
The human PBMCs were obtained from anti-coagulated human whole blood. To this end, 15 ml of Ficoll-Paque (Biochrom, Cat. No. L6115) were initially charged in Leucosep tubes and 20 ml of human blood were added. After centrifugation of the blood at 800 g for 15 min at room temperature, the plasma including the platelets was removed and discarded. The PBMCs were transferred into centrifugation tubes and made up with PBS (phosphate-buffered saline) (Gibco, Cat. No. 14190). The cell suspension was centrifuged at room temperature at 250 g for 10 min and the supernatant was discarded. The PBMCs were resuspended in complete medium (RPMI 1640, without L-glutamine (PAA, Cat. No. E15-039), 10% FCS; 50 U/ml penicillin, 50 μg/ml streptomycin (PAA, Cat. No. P11-010) and 1% L-glutamine (Sigma, Cat. No. G7513)).
The assay was also carried out in complete medium. The PBMCs were sown in 96-well plates at a cell density of 2.5×10^5 cells/well. The compounds according to the invention were subjected to serial dilution in a constant volume of 100% DMSO and used in the assay at 8 different concentrations in the range from 10 μM to 3 nM such that the final DMSO concentration was 0.4% DMSO. Prior to the actual stimulation, the cells were then pre-incubated therewith for 30 min. […] Cell viability was determined using the CellTiter-Glo luminescent assay (Promega, Cat. No. G7571 (G755/G756A)) in accordance with the manufacturer's instructions. The amount of secreted TNF-α in the cell culture supernatant was determined using the Human ProInflammatory 9-Plex Tissue Culture Kit (MSD, Cat. No. K15007B) in accordance with the instructions of the manufacturer. […]

human IRAK4, sequence (Q9NWZ3 whole entry): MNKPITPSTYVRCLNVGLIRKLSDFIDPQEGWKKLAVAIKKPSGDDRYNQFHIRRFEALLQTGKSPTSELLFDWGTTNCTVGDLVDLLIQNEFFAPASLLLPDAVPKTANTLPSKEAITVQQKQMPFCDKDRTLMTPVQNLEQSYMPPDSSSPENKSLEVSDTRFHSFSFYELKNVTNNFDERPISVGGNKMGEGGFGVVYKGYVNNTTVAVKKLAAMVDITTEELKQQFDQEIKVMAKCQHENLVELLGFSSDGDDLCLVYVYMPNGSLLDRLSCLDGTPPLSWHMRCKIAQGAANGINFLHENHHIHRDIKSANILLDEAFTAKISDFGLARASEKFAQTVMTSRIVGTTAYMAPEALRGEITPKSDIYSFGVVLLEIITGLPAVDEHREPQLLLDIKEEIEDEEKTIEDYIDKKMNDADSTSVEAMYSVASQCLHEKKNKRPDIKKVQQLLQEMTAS

| IC50 (human IRAK4) [nM] | IC50 [1] [nM] | Compound | activity (secreted TNF-α, LPS-induced cytokine production in human PBMCs) (human PBMCs) [µM] |
| --- | --- | --- | --- |
| 31 | 630 | CC(C)(O)c1cc2nn([C@@H]3CCOC3)cc2cc1NC(=O)c1cccc(C(F)(F)F)n1 [Example 38, N-{6-(2-Hydroxypropan-2-yl)-2-[(3R)-tetrahydrofuran-3-yl]-2H-indazol-5-yl}-6-(trifluoromethyl)pyridine-2-carboxamide] |  |
| 34 | 280 | CC(C)(O)c1cccc(C(=O)Nc2cc3cn(C4CCS(=O)(=O)CC4)nc3cc2Cl)n1 [Example 32, N-[6-Chloro-2-(1,1-dioxidotetrahydro-2H-thiopyran-4-yl)-2H-indazol-5-yl]-6-(2-hydroxypropan-2-yl)pyridine-2-carboxamide] |  |
| 1 |  | COc1cc2nn(C3CCN(CCC(C)(C)O)CC3)cc2cc1NC(=O)c1cccc(C(F)(F)F)n1 [Example 52, N-{2-[1-(3-Hydroxy-3-methylbutyl)piperidin-4-yl]-6-methoxy-2H-indazol-5-yl}-6-(trifluoromethyl)pyridine-2-carboxamide] | ≤ 1 |
| 28 | 540 | CC(C)(O)c1cc2nn([C@H]3CCOC3)cc2cc1NC(=O)c1cccc(C(F)(F)F)n1 [Example 36, N-{6-(2-Hydroxypropan-2-yl)-2-[(3S)-tetrahydrofuran-3-yl]-2H-indazol-5-yl}-6-(trifluoromethyl)pyridine-2-carboxamide] |  |
| 22 | 90 | O=C(Nc1cc2cn(C3CCOCC3)nc2cc1Cl)c1cccc(C(F)F)n1 [Example 31, N-[6-Chloro-2-(tetrahydro-2H-pyran-4-yl)-2H-indazol-5-yl]-6-(difluoromethyl)pyridine-2-carboxamide] |  |
| 111 | 1790 | COc1cc2nn(C3CCOCC3)cc2cc1NC(=O)c1ccnc(C(C)C)n1 [Example 27, 2-Isopropyl-N-[6-methoxy-2-(tetrahydro-2H-pyran-4-yl)-2H-indazol-5-yl]pyrimidine-4-carboxamide] |  |
| 20 | 110 | O=C(Nc1cc2cn(C3CCS(=O)(=O)CC3)nc2cc1OCC1CC1)c1cccc(C(F)(F)F)n1 [Example 17, N-[6-(Cyclopropylmethoxy)-2-(1,1-dioxidotetrahydro-2H-thiopyran-4-yl)-2H-indazol-5-yl]-6-(trifluoromethyl)pyridine-2-carboxamide] |  |
| 13 | 150 | COc1cc2nn(C3CNC(=O)C3)cc2cc1NC(=O)c1cccc(C(F)(F)F)n1 (centres unmarked) [Example 22, N-[6-Methoxy-2-(5-oxopyrrolidin-3-yl)-2H-indazol-5-yl]-6-(trifluoromethyl)pyridine-2-carboxamide] |  |
| 10 | 840 | COc1cc2nn(C3CCOCC3)cc2cc1NC(=O)c1csc(C)n1 [Example 25, N-[6-Methoxy-2-(tetrahydro-2H-pyran-4-yl)-2H-indazol-5-yl]-2-methyl-1,3-thiazole-4-carboxamide] |  |
| 47 | 280 | O=C(Nc1cc2cn(C3CCOCC3)nc2cc1Cl)c1cccc(C(F)(F)F)n1 [Example 30, N-[6-Chloro-2-(tetrahydro-2H-pyran-4-yl)-2H-indazol-5-yl]-6-(trifluoromethyl)pyridine-2-carboxamide] |  |
| 10 | 630 | COc1cc2nn(C3CCOC3)cc2cc1NC(=O)c1cccc(C(F)(F)F)n1 (centres unmarked) [Example 29, N-[6-Methoxy-2-(tetrahydrofuran-3-yl)-2H-indazol-5-yl]-6-(trifluoromethyl)pyridine-2-carboxamide] |  |
| 11 | 1800 | COC(=O)c1cc2nn(C3CCOCC3)cc2cc1NC(=O)c1cccc(C(F)(F)F)n1 [Example 33, Methyl 2-(tetrahydro-2H-pyran-4-yl)-5-({[6-(trifluoromethyl)pyridin-2-yl]carbonyl}amino)-2H-indazole-6-carboxylate] |  |
| 6 | 220 | COc1cc2nn(C3CCOCC3)cc2cc1NC(=O)c1cccc(N)n1 [Example 26, 6-Amino-N-[6-methoxy-2-(tetrahydro-2H-pyran-4-yl)-2H-indazol-5-yl]pyridine-2-carboxamide] |  |
